Patent US11028064B2, “Tricyclic heterocyclic derivatives and uses thereof” (AUCKLAND UNISERVICES LIMITED, priority 2016, dated 2021)
pIC50: −log10 of the molar value.

Target: CSF-1R (FMS) (Homo sapiens (Human), UniProt P07333)
Assay: SelectScreen Z'-LYTE kinase assay, Assay 336 for CSF-1R (FMS)
Format: biochemical
Settings: Z'-LYTE activity assay, 500 μM ATP (Km app); read-out: CSF-1R Enzyme IC50

Sequence of CSF-1R (FMS) (P07333 20-972): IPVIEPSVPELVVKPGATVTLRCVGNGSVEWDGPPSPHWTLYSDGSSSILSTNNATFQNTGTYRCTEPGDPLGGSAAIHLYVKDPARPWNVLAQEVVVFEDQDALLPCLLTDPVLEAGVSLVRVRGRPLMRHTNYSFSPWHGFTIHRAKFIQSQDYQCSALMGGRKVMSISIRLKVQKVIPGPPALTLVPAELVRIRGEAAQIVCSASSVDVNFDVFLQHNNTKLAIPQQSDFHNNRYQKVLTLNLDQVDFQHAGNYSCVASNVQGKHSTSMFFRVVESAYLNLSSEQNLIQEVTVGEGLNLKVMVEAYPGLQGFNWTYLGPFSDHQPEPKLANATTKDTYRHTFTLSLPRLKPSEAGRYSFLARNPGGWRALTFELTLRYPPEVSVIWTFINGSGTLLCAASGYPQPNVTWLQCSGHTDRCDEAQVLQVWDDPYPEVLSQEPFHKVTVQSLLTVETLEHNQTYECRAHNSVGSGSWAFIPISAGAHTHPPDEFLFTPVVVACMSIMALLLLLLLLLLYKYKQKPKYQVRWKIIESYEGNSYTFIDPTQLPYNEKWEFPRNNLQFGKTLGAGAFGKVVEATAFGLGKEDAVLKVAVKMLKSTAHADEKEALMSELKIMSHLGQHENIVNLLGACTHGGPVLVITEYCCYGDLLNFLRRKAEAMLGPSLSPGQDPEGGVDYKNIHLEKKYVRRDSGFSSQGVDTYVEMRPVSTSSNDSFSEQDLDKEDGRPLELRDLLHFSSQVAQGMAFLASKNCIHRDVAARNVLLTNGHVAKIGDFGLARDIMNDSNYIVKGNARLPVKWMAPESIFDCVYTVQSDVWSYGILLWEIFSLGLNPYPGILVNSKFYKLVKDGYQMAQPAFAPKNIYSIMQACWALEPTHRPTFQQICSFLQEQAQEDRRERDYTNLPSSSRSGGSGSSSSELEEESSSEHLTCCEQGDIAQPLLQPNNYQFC

Structure (SMILES)	pIC50
COc1ccc(CCc2ccc(Oc3ccc4c(=O)c5cccc(OCCN(C)C)c5oc4c3)cn2)cc1 [Example 3, 5-[2-(Dimethylamino)ethoxy]-3-({6-[2-(4-methoxyphenyl)ethyl]-3-pyridinyl}oxy)-9H-xanthen-9-one]	6.00 to 7.00
COc1ccc(COc2ccc(Oc3ccc4c(=O)c5cc(C)cc(OCCN(C)C)c5oc4c3)cc2OC)cc1 [Example 7]	> 7.00
COc1ccc(COc2ccc(Oc3ccc4c(=O)c5cc(C)cc(OCCN(C)C)c5oc4c3)cn2)cc1 [Example 10, 4-(2-(Dimethylamino)ethoxy)-6-((6-((4-methoxybenzyl)oxy)pyridin-3-yl)oxy)-2-methyl-9H-xanthen-9-one]	> 7.00
COc1ccc(COc2ccc(Oc3ccc4c(=O)c5cc(C)cc(OCCN(C)C)c5oc4c3)cn2)cn1 [Example 11, 4-(2-(Dimethylamino)ethoxy)-6-((6-((6-methoxypyridin-3-yl)methoxy)pyridin-3-yl)oxy)-2-methyl-9H-xanthen-9-one]	> 7.00
COc1ccc(COc2ncc(Oc3ccc4c(=O)c5cc(C)cc(OCCN(C)C)c5oc4c3)cc2OC)cc1 [Example 12, 4-(2-(Dimethylamino)ethoxy)-6-((5-methoxy-6-((4-methoxybenzyl)oxy)pyridin-3-yl)oxy)-2-methyl-9H-xanthen-9-one]	> 7.00
Cc1cc(OCCN(C)C)c2oc3cc(Oc4ccc(OCc5ccc(C(F)(F)F)nc5)nc4)ccc3c(=O)c2c1 [Example 13, 4-(2-(Dimethylamino)ethoxy)-2-methyl-6-((6-((6-(trifluoromethyl)pyridin-3-yl)meth-oxy)pyridin-3-yl)oxy)-9H-xanthen-9-one]	> 7.00
COc1ccc(CNc2ccc(Oc3ccc4c(=O)c5cc(C)cc(OCCN(C)C)c5oc4c3)cn2)cc1 [Example 14, 4-(2-(Dimethylamino)ethoxy)-6-((6-((4-methoxybenzyl)amino)pyridin-3-yl)oxy)-2-methyl-9H-xanthen-9-one]	> 7.00
COc1ccc(CNc2ccc(Oc3ccc4c(=O)c5cc(C)cc(OCCN(C)C)c5oc4c3)cn2)cn1 [Example 16, 4-(2-(Dimethylamino)ethoxy)-6-((6-(((6-methoxypyridin-3-yl)methyl)amino)pyridin-3-yl)oxy)-2-methyl-9H-xanthen-9-one]	> 7.00
COc1ccc(CCc2ccc(Oc3ccc4c(=O)c5cc(C)cc(OCCN(C)C)c5oc4c3)cn2)cc1 [Example 18, 4-(2-(Dimethylamino)ethoxy)-6-((6-(4-methoxyphenethyl)pyridin-3-yl)oxy)-2-methyl-9H-xanthen-9-one]	> 7.00
Cc1cc(OCCN(C)C)c2oc3cc(Oc4ccc(CCC(=O)Nc5cccnc5)nc4)ccc3c(=O)c2c1 [Example 21, 3-(5-((5-(2-(Dimethylamino)ethoxy)-7-methyl-9-oxo-9H-xanthen-3-yl)oxy)pyridin-2-yl)-N-(pyridin-3-yl)propanamide]	> 7.00
Cc1cc(OCCN(C)C)c2oc3cc(Oc4ccc(CCC(=O)NC5CCCC5)nc4)ccc3c(=O)c2c1 [Example 22, N-Cyclopentyl-3-(5-((5-(2-(dimethylamino)ethoxy)-7-methyl-9-oxo-9H-xanthen-3-yl)-oxy)pyridin-2-yl)propanamide]	> 7.00
Cc1cc(OCCN(C)C)c2oc3cc(Oc4ccc(CCC(=O)N5CCOCC5)nc4)ccc3c(=O)c2c1 [Example 24, 4-(2-(Dimethylamino)ethoxy)-2-methyl-6-((6-(3-morpholino-3-oxopropyl)pyridin-3-yl)oxy)-9H-xanthen-9-one]	> 7.00
Cc1cc(OCCN(C)C)c2oc3cc(Oc4ccc(CCNC(=O)C5CCCC5)nc4)ccc3c(=O)c2c1 [Example 26, N-(2-(5-((5-(2-(Dimethylamino)ethoxy)-7-methyl-9-oxo-9H-xanthen-3-yl)oxy)pyridin-2-yl)ethyl)cyclopentanecarboxamide]	> 7.00
Cc1cc(OCCN(C)C)c2oc3cc(Oc4ccc(CCNC(=O)N5CCCC5)nc4)ccc3c(=O)c2c1 [Example 27, N-(2-(5-((5-(2-(Dimethylamino)ethoxy)-7-methyl-9-oxo-9H-xanthen-3-yl)oxy)pyridin-2-yl)ethyl)pyrrolidine-1-carboxamide]	> 7.00
Cc1cc(OCCN)c2oc3cc(Oc4ccc(CCC(=O)NC5CCCC5)nc4)ccc3c(=O)c2c1 [Example 28, 3-(5-((5-(2-Aminoethoxy)-7-methyl-9-oxo-9H-xanthen-3-yl)oxy)pyridin-2-yl)-N-cyclopentylpropanamide]	> 7.00
Cc1cc(OCC2CCN(C)CC2)c2oc3cc(Oc4ccccc4)ccc3c(=O)c2c1 [Example 35, 2-Methyl-4-((1-methylpiperidin-4-yl)methoxy)-6-phenoxy-9H-xanthen-9-one]	6.00 to 7.00
Cc1cc(OCCN2CCCCC2)c2oc3cc(Oc4ccc(CCC(=O)NC5CCCC5)nc4)ccc3c(=O)c2c1 [Example 38, N-Cyclopentyl-3-(5-((7-methyl-9-oxo-5-(2-(piperidin-1-yl)ethoxy)-9H-xanthen-3-yl)oxy)pyridin-2-yl)propanamide]	> 7.00
CN(C)CCOc1cc(Cl)cc2c(=O)c3ccc(Oc4ccccc4)cc3oc12 [Example 39, 2-Chloro-4-[2-(dimethylamino)ethoxy]-6-phenoxy-9H-xanthen-9-one]	5.00 to 6.00
CN(C)CCOc1cc(Cl)cc2c(=O)c3ccc(Oc4cccc(C(=O)Nc5ccccc5)c4)cc3oc12 [Example 40, 3-({7-Chloro-5-[2-(dimethylamino)ethoxy]-9-oxo-9H-xanthen-3-yl}oxy)-N-phenylbenzamide]	> 7.00
COc1ccc(CCc2ccc(Oc3ccc4c(=O)c5cc(Cl)cc(OCCN(C)C)c5oc4c3)cn2)cc1 [Example 41, 2-Chloro-4-[2-(dimethylamino)ethoxy]-6-({6-[2-(4-methoxyphenyl)ethyl]-3-pyridinyl}oxy)-9H-xanthen-9-one]	6.00 to 7.00
CN(C)CCOc1ccc2oc3cc(Oc4ccc(CCC(=O)NC5CCCC5)nc4)ccc3c(=O)c2c1 [Example 44, N-Cyclopentyl-3-(5-((7-(2-(dimethylamino)ethoxy)-9-oxo-9H-xanthen-3-yl)oxy)-pyridin-2-yl)propanamide]	> 7.00
COc1cc(OCCN(C)C)cc2c(=O)c3ccc(Oc4ccc(CCC(=O)NC5CCCC5)nc4)cc3oc12 [Example 46, N-Cyclopentyl-3-(5-((7-(2-(dimethylamino)ethoxy)-5-methoxy-9-oxo-9H-xanthen-3-yl)oxy)pyridin-2-yl)propanamide]	> 7.00
CN(C)CCOc1ccc2c(=O)c3ccc(Oc4ccc(CCC(=O)NC5CCCC5)nc4)cc3oc2c1 [Example 47, N-Cyclopentyl-3-(5-((6-(2-(dimethylamino)ethoxy)-9-oxo-9H-xanthen-3-yl)oxy)pyridine-2-yl)propanamide]	> 7.00
Cc1cc(OCCN(C)C)c2sc3cc(Oc4ccccc4)ccc3c(=O)c2c1 [Example 48, 4-(2-(Dimethylamino)ethoxy)-2-methyl-6-phenoxy-9H-thioxanthen-9-one]	6.00 to 7.00
Cc1cc(OCCN(C)C)c2sc3cc(Oc4cccc(C(=O)Nc5ccccc5)c4)ccc3c(=O)c2c1 [Example 49, 3-((5-(2-(Dimethylamino)ethoxy)-7-methyl-9-oxo-9H-thioxanthen-3-yl)oxy)-N-phenylbenzamide]	> 7.00
COc1ccc(CCc2ccc(Oc3ccc4c(=O)c5cc(C)cc(OCCN(C)C)c5sc4c3)cn2)cc1 [Example 50, 4-(2-(Dimethylamino)ethoxy)-6-((6-(4-methoxyphenethyl)pyridin-3-yl)oxy)-2-methyl-9H-thioxanthen-9-one]	> 7.00
